Assay results published in PubChem BioAssay AID248 (DTP/NCI, 2004).
Where “and” joins values, the source holds several entries; their conditions need not be identical. Equal entries are not always repeated. Toxic doses and inconclusive results are not listed. No stated cut-off is given here; in the data, active means T/C of 150% or more; inactive means T/C below 125%.

Tested on: L1210 leukemia ip in BDF1 mice, survival T/C
Assay: NCI In Vivo Anticancer Drug Screen. Data for tumor model L1210 Leukemia (intraperitoneal) in B6D2F1 (BDF1) mice
Settings: endpoint: mean survival time, higher = longer survival
Method in brief: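 Transplantable tumor model; survival measured in treated vs vehicle control mice. Value = treated/control.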

[1] = dose: 100.0 mg/kg/injection, schedule: Q04DX003 (ip), vehicle: saline with Tween-80
[2] = dose: 100.0 mg/kg/injection, schedule: Q04DX003 (ip), vehicle: saline
[3] = dose: 200.0 mg/kg/injection, schedule: Q04DX003 (ip), vehicle: saline
[4] = dose: 100.0 mg/kg/injection, schedule: Q01DX009 (ip), vehicle: saline with Tween-80
[5] = dose: 200.0 mg/kg/injection, schedule: Q01DX009 (ip), vehicle: saline with Tween-80
[6] = dose: 200.0 mg/kg/injection, schedule: Q04DX003 (ip), vehicle: saline with Tween-80
[7] = dose: 400.0 mg/kg/injection, schedule: Q01DX009 (ip), vehicle: saline with Tween-80
[8] = dose: 400.0 mg/kg/injection, schedule: Q04DX003 (ip), vehicle: saline with Tween-80
[9] = dose: 100.0 mg/kg/injection, schedule: Q01DX001 (ip), vehicle: saline
[10] = dose: 200.0 mg/kg/injection, schedule: Q01DX001 (ip), vehicle: saline
[11] = dose: 25.0 mg/kg/injection, schedule: Q01DX009 (ip), vehicle: saline
[12] = dose: 50.0 mg/kg/injection, schedule: Q01DX009 (ip), vehicle: saline
[13] = dose: 100.0 mg/kg/injection, schedule: Q04DX003 (ip), vehicle: Klucel (hydroxypropylcellulose) (HPC)
[14] = dose: 200.0 mg/kg/injection, schedule: Q04DX003 (ip), vehicle: Klucel (hydroxypropylcellulose) (HPC)
[15] = dose: 400.0 mg/kg/injection, schedule: Q04DX003 (ip), vehicle: Klucel (hydroxypropylcellulose) (HPC)

Measured: T/C

COc1ccc(-c2c(O)c3cccc(-c4ccccc4)c3oc2=O)cc1
inactive: dose: 25.0 mg/kg/injection, schedule: Q04DX003 (ip), vehicle: saline with Tween-80 116 % of control | dose: 50.0 mg/kg/injection, schedule: Q04DX003 (ip), vehicle: saline with Tween-80 96 % of control | [1] 101 % of control | [2] 95 % of control | [3] 93 % of control

CCCC(C(=O)O)c1ccccc1C (stereo not given)
inactive: [4] 102 % of control | [1] 102 % of control | [5] 98 % of control | [6] 97 % of control | [7] 105 % of control | [8] 107 % of control

N#CC1(C#N)OC12CCS(=O)(=O)c1ccccc12 (stereo not given)
inactive: [9] 88 % of control | [10] 95 % of control | dose: 400.0 mg/kg/injection, schedule: Q01DX001 (ip), vehicle: saline 101 % of control

O=C1c2ccccc2-c2cc(Br)c(NC(Cl)Cl)cc21
inactive: [1] 94 % of control | [6] 93 % of control | [8] 94 % of control

[O-][n+]1c(Cl)cc(Cl)c2ccccc21
inactive: dose: 25.0 mg/kg/injection, schedule: Q01DX009 (ip), vehicle: saline with Tween-80 95 % of control | dose: 50.0 mg/kg/injection, schedule: Q01DX009 (ip), vehicle: saline with Tween-80 114 % of control | [4] 97 % of control and 102 % of control

CCCCCCCCCCCCCCCC[N+]1(C)CCN(SN2CC[N+](C)(CCCCCCCCCCCCCCCC)CC2)CC1
inactive: [11] 98 % of control | [12] 105 % of control | [2] 86 % of control

CCOC(=O)C(c1ccccc1)(c1ccccc1)c1ccccc1
inactive: dose: 6.25 mg/kg/injection, schedule: Q01DX009 (ip), vehicle: Klucel (hydroxypropylcellulose) (HPC) 90 % of control | dose: 12.5 mg/kg/injection, schedule: Q01DX009 (ip), vehicle: Klucel (hydroxypropylcellulose) (HPC) 92 % of control | dose: 25.0 mg/kg/injection, schedule: Q01DX009 (ip), vehicle: Klucel (hydroxypropylcellulose) (HPC) 95 % of control

CC1CCC2(NC1)OC1CC3C4CC=C5CC(OC(=O)N(CCCl)CCCl)CCC5(C)C4CCC3(C)C1C2C (stereo not given)
inactive: dose: 100.0 mg/kg/injection, schedule: Q01DX001 (sc), vehicle: steriod suspending solution 97 % of control | dose: 200.0 mg/kg/injection, schedule: Q01DX001 (sc), vehicle: steriod suspending solution 123 % of control | dose: 400.0 mg/kg/injection, schedule: Q01DX001 (sc), vehicle: steriod suspending solution 97 % of control

Cc1ccc(S(=O)(=O)N/N=C/c2ccc(Cl)s2)cc1
inactive: [4] 95 % of control | [5] 97 % of control | [7] 92 % of control

COC(C)C(O)(C(N)=O)C(C)C (stereo not given)
inactive: dose: 100.0 mg/kg/injection, schedule: Q01DX009 (ip), vehicle: Klucel (hydroxypropylcellulose) (HPC) 98 % of control | [13] 101 % of control | dose: 200.0 mg/kg/injection, schedule: Q01DX009 (ip), vehicle: Klucel (hydroxypropylcellulose) (HPC) 98 % of control | [14] 101 % of control | dose: 400.0 mg/kg/injection, schedule: Q01DX009 (ip), vehicle: Klucel (hydroxypropylcellulose) (HPC) 102 % of control | [15] 97 % of control

Nc1ccc(N)c(C(=O)O)c1
inactive: dose: 75.0 mg/kg/injection, schedule: Q01DX001 (ip), vehicle: other 98 % of control | dose: 150.0 mg/kg/injection, schedule: Q01DX001 (ip), vehicle: other 93 % of control

O=[N+]([O-])c1cc(S(=O)(=O)c2ccc(O)c([N+](=O)[O-])c2)ccc1O
inactive: dose: 25.0 mg/kg/injection, schedule: Q04DX002 (ip), vehicle: saline 98 % of control | dose: 50.0 mg/kg/injection, schedule: Q04DX002 (ip), vehicle: saline 98 % of control | dose: 100.0 mg/kg/injection, schedule: Q04DX002 (ip), vehicle: saline 98 % of control and 104 % of control

Oc1ccccc1/C=N/C(O)C(Cl)(Cl)Cl (stereo not given)
inactive: dose: 100.0 mg/kg/injection, schedule: Q04DX002 (ip), vehicle: Klucel (hydroxypropylcellulose) (HPC) 96 % of control | dose: 200.0 mg/kg/injection, schedule: Q04DX002 (ip), vehicle: Klucel (hydroxypropylcellulose) (HPC) 114 % of control | dose: 400.0 mg/kg/injection, schedule: Q04DX002 (ip), vehicle: Klucel (hydroxypropylcellulose) (HPC) 107 % of control

CCC(CO)NC(=O)C(O)C(O)C(O)C(O)CO (stereo not given)
inactive: [2] 94 % of control | [3] 97 % of control | dose: 400.0 mg/kg/injection, schedule: Q04DX003 (ip), vehicle: saline 94 % of control

O=C1C=CC(=O)C2=C1C1c3ccccc3C2c2ccccc21
inactive: dose: 50.0 mg/kg/injection, schedule: Q04DX002 (ip), vehicle: saline with Tween-80 95 % of control | dose: 100.0 mg/kg/injection, schedule: Q04DX002 (ip), vehicle: saline with Tween-80 95 % of control and 98 % of control | dose: 200.0 mg/kg/injection, schedule: Q04DX002 (ip), vehicle: saline with Tween-80 92 % of control | dose: 400.0 mg/kg/injection, schedule: Q04DX002 (ip), vehicle: saline with Tween-80 114 % of control

NC(=O)c1cc(C(N)=O)c(N)nc1N
inactive: [13] 100 % of control | [14] 97 % of control | [15] 94 % of control

CCN(CC)CCOC(=O)c1[nH]cnc1/N=N\N(C)C
inactive: [9] 104 % of control | [10] 98 % of control

Cn1ncc2c(=O)[nH]nnc21
inactive: dose: 100.0 mg/kg/injection, schedule: Q01DX001 (ip), vehicle: carboxymethylcellulose (CMC) 98 % of control | dose: 200.0 mg/kg/injection, schedule: Q01DX001 (ip), vehicle: carboxymethylcellulose (CMC) 89 % of control | dose: 400.0 mg/kg/injection, schedule: Q01DX001 (ip), vehicle: carboxymethylcellulose (CMC) 104 % of control

CN(CC1CCCO1)C(=O)Nc1ccc(Cl)cc1 (stereo not given)
inactive: dose: 100.0 mg/kg/injection, schedule: Q01DX009 (ip), vehicle: carboxymethylcellulose (CMC) 107 % of control | dose: 200.0 mg/kg/injection, schedule: Q01DX009 (ip), vehicle: carboxymethylcellulose (CMC) 96 % of control | dose: 400.0 mg/kg/injection, schedule: Q01DX009 (ip), vehicle: carboxymethylcellulose (CMC) 104 % of control

CCC(C)C(NC(=O)C(CC(C)C)N(C)C)C(=O)N1CCC2Oc3ccc(cc3)/C=C\NC(=O)C(Cc3ccccc3)NC(=O)C21 (stereo not given)
inactive: [13] 96 % of control | [14] 108 % of control | [15] 94 % of control

COC(=O)C(Br)CBr (stereo not given)
inactive: [11] 100 % of control | [12] 105 % of control | dose: 100.0 mg/kg/injection, schedule: Q01DX009 (ip), vehicle: saline 98 % of control and 105 % of control | [2] 102 % of control | [3] 116 % of control

CC(=O)COc1ccccc1-c1ccccc1
inactive: [4] 97 % of control | [5] 101 % of control | [7] 100 % of control

CCC([NH-])=O.CCC([NH-])=O.[Pt+2]
inactive: dose: 100.0 mg/kg/injection, schedule: Q01DX009 (ip), vehicle: water 107 % of control | dose: 100.0 mg/kg/injection, schedule: Q04DX003 (ip), vehicle: water 101 % of control | dose: 200.0 mg/kg/injection, schedule: Q01DX009 (ip), vehicle: water 106 % of control | dose: 200.0 mg/kg/injection, schedule: Q04DX003 (ip), vehicle: water 108 % of control | dose: 400.0 mg/kg/injection, schedule: Q04DX003 (ip), vehicle: water 110 % of control
